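Cultured in 96-well plates, cells were exposed to test compound for 48 hours across five concentrations. At the GI50, growth is halved. The concentration for full growth arrest is given as TGI.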
Columns and labels:
Test in all cases: NCI tumour cell line growth inhibition, 48 h
IGROV1 ovarian = system: IGROV1 ovarian
K-562 leukemia = system: K-562 leukemia
OVCAR-4 ovarian = system: OVCAR-4 ovarian
PC-3 prostate = system: PC-3 prostate
SF-539 CNS = system: SF-539 CNS
U251 CNS = system: U251 CNS
UACC-62 melanoma = system: UACC-62 melanoma
UO-31 renal = system: UO-31 renal
RXF 393 renal = system: RXF 393 renal
BT-549 breast = system: BT-549 breast

With `C#C[C@]1(O)CC[C@H]2[C@@H]3CC=C4c5sc(Nc6ccccc6)nc5CC[C@]4(C)[C@H]3CC[C@@]21C` the GI50 (IGROV1 ovarian) was 2.06 µM, the TGI (IGROV1 ovarian) was 5.5 µM and the GI50 (K-562 leukemia) was 1.86 µM. It also gave a TGI (K-562 leukemia) greater than 100 µM, a GI50 (OVCAR-4 ovarian) of 3.14 µM and a TGI (OVCAR-4 ovarian) of 65.6 µM. For the same molecule, the GI50 (PC-3 prostate) was 1.22 µM, the TGI (PC-3 prostate) was 43.5 µM and the GI50 (SF-539 CNS) was 0.37 µM. It also gave a TGI (SF-539 CNS) of 1.52 µM, a GI50 (U251 CNS) of 0.886 µM and a TGI (U251 CNS) of 3.18 µM. It also gave a GI50 (UACC-62 melanoma) of 2.13 µM, a TGI (UACC-62 melanoma) of 6.44 µM and a GI50 (UO-31 renal) of 1.43 µM. For the same molecule, the TGI (UO-31 renal) was 2.91 µM.

`CCCCCCCCCc1cc(=O)c2c(O)cccc2o1` showed a TGI (IGROV1 ovarian) greater than 100 µM, a TGI (K-562 leukemia) greater than 100 µM and a TGI (OVCAR-4 ovarian) greater than 100 µM. For the same molecule, the TGI (RXF 393 renal) was greater than 100 µM, the TGI (SF-539 CNS) was greater than 100 µM and the TGI (U251 CNS) was greater than 100 µM. It also gave a TGI (UACC-62 melanoma) greater than 100 µM and a TGI (UO-31 renal) greater than 100 µM.

For `O=C(CSc1nnc(-c2ccccc2NC(=O)C(F)(F)F)c(=O)[nH]1)NC(=O)Nc1ccccc1`, the TGI (IGROV1 ovarian) was greater than 100 µM, the TGI (K-562 leukemia) was greater than 100 µM and the TGI (RXF 393 renal) was greater than 100 µM. The TGI (SF-539 CNS) was greater than 100 µM, the TGI (U251 CNS) was greater than 100 µM and the TGI (UACC-62 melanoma) was greater than 100 µM. The TGI (UO-31 renal) was greater than 100 µM.

For `CC(=O)OCC1OC([S-])C(OC(C)=O)C(OC(C)=O)C1OC(C)=O.CC[PH+](CC)CC.CC[PH+](CC)CC.[Au].[Au]` (stereo not drawn), the GI50 (IGROV1 ovarian) was 0.306 µM, the TGI (IGROV1 ovarian) was 1.09 µM and the GI50 (K-562 leukemia) was 0.0834 µM. It also gave a TGI (K-562 leukemia) of 0.337 µM, a GI50 (OVCAR-4 ovarian) of 0.506 µM and a TGI (OVCAR-4 ovarian) of 1.88 µM. It also gave a GI50 (RXF 393 renal) of 0.0434 µM, a TGI (RXF 393 renal) of 0.197 µM and a GI50 (SF-539 CNS) of 0.18 µM. It also gave a TGI (SF-539 CNS) of 0.624 µM, a GI50 (U251 CNS) of 0.149 µM and a TGI (U251 CNS) of 0.306 µM. For the same molecule, the GI50 (UACC-62 melanoma) was 0.119 µM, the TGI (UACC-62 melanoma) was 0.307 µM and the GI50 (UO-31 renal) was 1.6 µM. It also gave a TGI (UO-31 renal) of 2.98 µM.

With `CCOC(=O)C1N(S(=O)(=O)c2ccc(C)cc2)CCC12C(c1ccc(OC)cc1)NC1CCCCC12` (stereo not drawn) the TGI (IGROV1 ovarian) was greater than 100 µM, the TGI (K-562 leukemia) was greater than 100 µM and the TGI (OVCAR-4 ovarian) was greater than 100 µM. It also gave a TGI (RXF 393 renal) greater than 100 µM, a TGI (SF-539 CNS) greater than 100 µM and a TGI (U251 CNS) greater than 100 µM. The TGI (UACC-62 melanoma) was greater than 100 µM and the TGI (UO-31 renal) was greater than 100 µM.

With `CCOC(=O)[C@H](CCCNC(=O)OC(C)(C)C)NCc1ccc(OC)c(OC)c1` the TGI (IGROV1 ovarian) was greater than 100 µM, the TGI (K-562 leukemia) was greater than 100 µM and the TGI (OVCAR-4 ovarian) was greater than 100 µM. The TGI (RXF 393 renal) was greater than 100 µM, the TGI (SF-539 CNS) was greater than 100 µM and the TGI (U251 CNS) was greater than 100 µM. It also gave a TGI (UACC-62 melanoma) greater than 100 µM and a TGI (UO-31 renal) greater than 100 µM.

`N#CC(/C(=N/NC(=O)C(=O)NN)C(=O)NC12CC3CC(CC(C3)C1)C2)c1ccccc1` (stereo not drawn) showed a TGI (IGROV1 ovarian) greater than 100 µM, a TGI (K-562 leukemia) greater than 100 µM and a TGI (OVCAR-4 ovarian) greater than 100 µM. For the same molecule, the TGI (RXF 393 renal) was greater than 100 µM, the TGI (SF-539 CNS) was greater than 100 µM and the TGI (U251 CNS) was greater than 100 µM. The TGI (UACC-62 melanoma) was greater than 100 µM and the TGI (UO-31 renal) was greater than 100 µM.

With `CC(C)(C)N1CC2(CCCCC2)C1=O` the TGI (IGROV1 ovarian) was greater than 100 µM, the TGI (K-562 leukemia) was greater than 100 µM and the TGI (OVCAR-4 ovarian) was greater than 100 µM. It also gave a TGI (RXF 393 renal) greater than 100 µM, a TGI (SF-539 CNS) greater than 100 µM and a TGI (U251 CNS) greater than 100 µM. The TGI (UACC-62 melanoma) was greater than 100 µM and the TGI (UO-31 renal) was greater than 100 µM.

`COc1c(C)c2c(c(C)c1Cl)Oc1c(C=O)c(O)c(Cl)c(C)c1C(=O)O2` was tested, and the TGI (IGROV1 ovarian) was 83.8 µM, the TGI (K-562 leukemia) was 97 µM and the TGI (SF-539 CNS) was 39.7 µM. The TGI (U251 CNS) was 44.9 µM and the TGI (UACC-62 melanoma) was 63 µM.

`O=C1c2ccn(CCCCNC(CO)(CO)CO)c2C(=O)c2c1c(O)c1ccccc1c2O` gave a GI50 (BT-549 breast) of 22.7 µM, a TGI (BT-549 breast) of 69.9 µM and a GI50 (IGROV1 ovarian) of 2.01 µM. The TGI (IGROV1 ovarian) was greater than 100 µM, the GI50 (OVCAR-4 ovarian) was 2.35 µM and the TGI (OVCAR-4 ovarian) was greater than 22.2 µM. For the same molecule, the GI50 (PC-3 prostate) was 2.83 µM, the TGI (PC-3 prostate) was 7.57 µM and the GI50 (U251 CNS) was 1.95 µM. It also gave a TGI (U251 CNS) of 4.67 µM, a TGI (UACC-62 melanoma) of 0.931 µM and a GI50 (UO-31 renal) of 23.7 µM. It also gave a TGI (UO-31 renal) greater than 100 µM.

Molecule `CC(=O)Oc1ccccc1C(=O)N=C1[Se]CCN1C(=O)c1ccccc1OC(C)=O` has a GI50 (K-562 leukemia) of 0.94 µM, a TGI (K-562 leukemia) greater than 100 µM and a GI50 (OVCAR-4 ovarian) of 1.46 µM. It also gave a TGI (OVCAR-4 ovarian) of 7.24 µM, a GI50 (PC-3 prostate) of 1.06 µM and a TGI (PC-3 prostate) of 4.88 µM. It also gave a GI50 (RXF 393 renal) of 0.355 µM, a TGI (RXF 393 renal) of 1.51 µM and a GI50 (SF-539 CNS) of 1.06 µM. It also gave a TGI (SF-539 CNS) of 3.21 µM, a GI50 (U251 CNS) of 0.734 µM and a TGI (U251 CNS) of 2.18 µM. The GI50 (UACC-62 melanoma) was 1.04 µM, the TGI (UACC-62 melanoma) was 2.84 µM and the GI50 (UO-31 renal) was 0.424 µM. For the same molecule, the TGI (UO-31 renal) was 1.53 µM.

Reference: PubChem BioAssay (NCI)
